Tests used:
Conditions in all cases: Neuro2a, 3 nM
[1] = target: T1, Marginal zone B- and B1-cell-specific protein (Mus musculus) (UniProt Q9D8I1)
T1 sequence (whole entry): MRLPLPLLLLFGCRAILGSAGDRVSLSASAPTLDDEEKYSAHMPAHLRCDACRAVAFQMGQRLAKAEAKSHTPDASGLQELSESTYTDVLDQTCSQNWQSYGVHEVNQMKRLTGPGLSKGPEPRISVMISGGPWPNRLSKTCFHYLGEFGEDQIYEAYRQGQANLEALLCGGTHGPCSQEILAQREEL
Description: Inhibition of Perp1 in mouse Neuro2a cells at 3 nM after 4 hrs by ABPP-SILAC assay

[2] = target: T2, sn-1-specific diacylglycerol lipase ABHD11 (Mus musculus) (UniProt Q8K4F5)
T2 sequence (whole entry): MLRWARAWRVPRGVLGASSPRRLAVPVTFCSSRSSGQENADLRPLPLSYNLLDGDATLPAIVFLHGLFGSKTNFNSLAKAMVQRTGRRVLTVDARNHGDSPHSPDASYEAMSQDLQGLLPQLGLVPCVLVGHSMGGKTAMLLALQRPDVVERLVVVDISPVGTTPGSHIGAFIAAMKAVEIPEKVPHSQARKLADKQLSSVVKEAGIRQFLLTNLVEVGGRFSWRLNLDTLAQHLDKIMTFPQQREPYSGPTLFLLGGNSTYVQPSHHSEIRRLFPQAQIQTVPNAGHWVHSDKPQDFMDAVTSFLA
Description: Inhibition of Abhd11 in mouse Neuro2a cells at 3 nM after 4 hrs by ABPP-SILAC assay

[3] = target: T3, Triacylglycerol hydrolase DDHD2 (Mus musculus) (UniProt Q80Y98)
T3 sequence (whole entry): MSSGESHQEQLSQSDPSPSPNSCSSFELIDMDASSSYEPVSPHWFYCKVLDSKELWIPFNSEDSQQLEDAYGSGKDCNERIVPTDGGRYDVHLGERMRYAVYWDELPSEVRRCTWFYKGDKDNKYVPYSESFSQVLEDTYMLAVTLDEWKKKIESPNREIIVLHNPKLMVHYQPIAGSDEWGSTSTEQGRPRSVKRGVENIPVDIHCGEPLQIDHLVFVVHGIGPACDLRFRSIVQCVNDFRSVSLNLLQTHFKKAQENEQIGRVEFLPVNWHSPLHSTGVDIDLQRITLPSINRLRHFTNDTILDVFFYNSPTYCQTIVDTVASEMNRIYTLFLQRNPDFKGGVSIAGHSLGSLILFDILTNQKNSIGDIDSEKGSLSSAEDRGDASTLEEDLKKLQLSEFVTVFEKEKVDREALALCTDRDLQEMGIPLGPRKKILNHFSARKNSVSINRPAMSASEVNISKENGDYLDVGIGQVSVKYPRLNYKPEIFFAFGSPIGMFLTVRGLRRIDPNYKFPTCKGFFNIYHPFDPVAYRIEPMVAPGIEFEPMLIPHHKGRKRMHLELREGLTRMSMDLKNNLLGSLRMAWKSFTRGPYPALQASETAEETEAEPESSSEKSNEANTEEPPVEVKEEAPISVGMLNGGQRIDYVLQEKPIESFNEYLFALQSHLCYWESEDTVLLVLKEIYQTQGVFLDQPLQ
Description: Inhibition of Ddhd2 in mouse Neuro2a cells at 3 nM after 4 hrs by ABPP-SILAC assay

[4] = target: T4, 85/88 kDa calcium-independent phospholipase A2 (Mus musculus) (UniProt P97819)
T4 sequence (whole entry): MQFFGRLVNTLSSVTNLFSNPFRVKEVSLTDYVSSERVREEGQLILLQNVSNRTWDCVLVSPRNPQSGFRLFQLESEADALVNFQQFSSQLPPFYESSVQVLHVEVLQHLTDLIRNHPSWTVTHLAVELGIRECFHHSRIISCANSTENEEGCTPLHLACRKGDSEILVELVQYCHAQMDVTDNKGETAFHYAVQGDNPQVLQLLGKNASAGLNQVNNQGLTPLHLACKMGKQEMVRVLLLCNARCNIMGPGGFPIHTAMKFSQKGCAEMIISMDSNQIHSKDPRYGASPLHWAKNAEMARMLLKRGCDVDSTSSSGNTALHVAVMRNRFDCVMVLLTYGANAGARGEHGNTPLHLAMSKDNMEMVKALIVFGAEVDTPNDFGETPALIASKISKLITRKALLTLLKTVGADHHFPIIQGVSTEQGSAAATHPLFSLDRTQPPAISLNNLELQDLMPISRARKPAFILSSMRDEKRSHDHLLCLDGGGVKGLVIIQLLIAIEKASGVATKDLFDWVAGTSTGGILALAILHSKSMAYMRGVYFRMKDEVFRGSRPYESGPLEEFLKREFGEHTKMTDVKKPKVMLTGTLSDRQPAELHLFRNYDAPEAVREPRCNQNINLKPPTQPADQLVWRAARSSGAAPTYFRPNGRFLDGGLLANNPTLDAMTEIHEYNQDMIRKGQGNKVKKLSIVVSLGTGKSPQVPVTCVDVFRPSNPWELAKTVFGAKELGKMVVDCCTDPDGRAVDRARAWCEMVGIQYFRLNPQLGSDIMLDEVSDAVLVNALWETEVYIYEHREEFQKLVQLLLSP
Description: Inhibition of Pla2g6 in mouse Neuro2a cells at 3 nM after 4 hrs by ABPP-SILAC assay

[5] = target: T5, Phospholipase DDHD1 (Mus musculus) (UniProt Q80YA3)
T5 sequence (whole entry): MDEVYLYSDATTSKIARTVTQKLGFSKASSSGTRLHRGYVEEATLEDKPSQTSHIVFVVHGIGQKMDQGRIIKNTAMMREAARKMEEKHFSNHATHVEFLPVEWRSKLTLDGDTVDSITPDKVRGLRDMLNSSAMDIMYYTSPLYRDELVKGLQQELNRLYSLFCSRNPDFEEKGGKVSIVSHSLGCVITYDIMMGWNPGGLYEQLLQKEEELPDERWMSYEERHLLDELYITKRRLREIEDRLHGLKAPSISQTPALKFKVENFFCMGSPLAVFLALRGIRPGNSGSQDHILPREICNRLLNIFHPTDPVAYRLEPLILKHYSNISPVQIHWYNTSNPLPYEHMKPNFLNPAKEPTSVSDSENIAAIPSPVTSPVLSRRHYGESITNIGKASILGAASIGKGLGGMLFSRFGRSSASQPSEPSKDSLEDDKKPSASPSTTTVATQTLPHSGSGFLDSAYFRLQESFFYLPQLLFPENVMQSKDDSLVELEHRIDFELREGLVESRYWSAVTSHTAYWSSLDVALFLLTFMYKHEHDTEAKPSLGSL
Description: Inhibition of Ddhd1 in mouse Neuro2a cells at 3 nM after 4 hrs by ABPP-SILAC assay

[6] = target: T6, Rhomboid-related protein 4 (Mus musculus) (UniProt Q8BHC7)
T6 sequence (whole entry): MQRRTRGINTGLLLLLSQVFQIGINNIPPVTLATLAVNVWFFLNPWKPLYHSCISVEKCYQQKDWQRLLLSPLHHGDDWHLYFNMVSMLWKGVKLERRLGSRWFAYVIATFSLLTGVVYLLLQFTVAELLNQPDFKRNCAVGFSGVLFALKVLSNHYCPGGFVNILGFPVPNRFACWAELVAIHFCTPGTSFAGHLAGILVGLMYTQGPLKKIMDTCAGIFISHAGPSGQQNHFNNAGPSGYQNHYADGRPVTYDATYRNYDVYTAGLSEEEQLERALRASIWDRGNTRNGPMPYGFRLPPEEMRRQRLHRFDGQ
Description: Inhibition of Rhbdd1 in mouse Neuro2a cells at 3 nM after 4 hrs by ABPP-SILAC assay

Measured: inhibition

O=C(N1CCCCC1c1ccccc1)n1cc(-c2ccc(-c3cccc(CO)c3)cc2)nn1 (racemic)
< 50%: all assays above

O=C(c1cccc(-c2ccc(-c3cn(C(=O)N4CCCCC4c4ccccc4)nn3)cc2)c1)N1CCCCC1 (racemic)
< 50%: all assays above

O=C(O)c1cccc(-c2ccc(-c3cn(C(=O)N4CCCCC4Cc4ccccc4)nn3)cc2)c1 (racemic)
< 50%: all assays above

Reference: ChEMBL document CHEMBL3259629, “Discovery and optimization of piperidyl-1,2,3-triazole ureas as potent, selective, and in vivo-active inhibitors of α/β-hydrolase domain containing 6 (ABHD6)” (J Med Chem, 2013)
